Columns and labels:
[1] = target: T1, TXNRD1 (thioredoxin reductase 1) (Rattus norvegicus, UniProt O89049); test: […] min incubation, residual activity by DTNB reduction assay; type: biochemical
T1 sequence (O89049 1-499): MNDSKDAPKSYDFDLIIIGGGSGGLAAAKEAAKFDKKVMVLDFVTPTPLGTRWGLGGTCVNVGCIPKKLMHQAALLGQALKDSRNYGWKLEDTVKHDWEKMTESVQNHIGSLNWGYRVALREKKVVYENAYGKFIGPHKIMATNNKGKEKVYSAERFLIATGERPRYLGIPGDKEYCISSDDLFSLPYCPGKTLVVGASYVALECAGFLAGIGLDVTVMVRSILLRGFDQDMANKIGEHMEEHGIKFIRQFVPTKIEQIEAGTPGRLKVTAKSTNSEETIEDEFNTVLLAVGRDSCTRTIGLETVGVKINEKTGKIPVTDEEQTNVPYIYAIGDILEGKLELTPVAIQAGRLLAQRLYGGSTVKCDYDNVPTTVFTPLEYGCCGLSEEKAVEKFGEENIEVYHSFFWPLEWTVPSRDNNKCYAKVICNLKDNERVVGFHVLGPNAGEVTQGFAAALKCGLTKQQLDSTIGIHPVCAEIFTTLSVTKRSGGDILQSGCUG

[2] = target: T1, TXNRD1 (thioredoxin reductase 1); test: as above; type: biochemical; details: 0.25 h, read-out: % residual activity at 0.5 μM

Row | Structure (SMILES) | 60 min incubation, residual activity by DTNB reduction assay [1] | remaining activity at 0.5 µM [2] [%]
1 | [NH2][Pt]([NH2])([Cl])[Cl] [cisplatin] | the inhibition of auranofin and cisplatin on TXNRD1 is not significantly affected by guiding bar mutants | –
2 | COc1ccc([N+](=O)[O-])c(S(=O)(=O)c2ccc(Cl)cc2)n1 [TRi-1] | – | ~30
